Test results: patent publication US9656949B2, “Substituted carboxylic acid derivatives as aggrecanase inhibitors for the treatment of osteoarthritis” (MERCK PATENT GMBH, priority 2013, dated 2017)
Values after ≈ are worked out from the molar mass of the structure shown.

Experiments:
[1] = target: T1, human recombinant AdamTS-5 (Homo sapiens, UniProt Q9UNA0); assay: Biochemical activity testing of ADAMTS-5: aggrecan peptide cleavage assay (AlphaScreen); conditions: 4.5 nM human recombinant AdamTS-5, biotinylated 43mer aggrecan peptide, 180 min at 37° C.; read-out: IC50 [ADAM-NTS5]M
T1 construct: purchased R&D systems, Wiesbaden, Germany
T1 sequence (Q9UNA0 262-930): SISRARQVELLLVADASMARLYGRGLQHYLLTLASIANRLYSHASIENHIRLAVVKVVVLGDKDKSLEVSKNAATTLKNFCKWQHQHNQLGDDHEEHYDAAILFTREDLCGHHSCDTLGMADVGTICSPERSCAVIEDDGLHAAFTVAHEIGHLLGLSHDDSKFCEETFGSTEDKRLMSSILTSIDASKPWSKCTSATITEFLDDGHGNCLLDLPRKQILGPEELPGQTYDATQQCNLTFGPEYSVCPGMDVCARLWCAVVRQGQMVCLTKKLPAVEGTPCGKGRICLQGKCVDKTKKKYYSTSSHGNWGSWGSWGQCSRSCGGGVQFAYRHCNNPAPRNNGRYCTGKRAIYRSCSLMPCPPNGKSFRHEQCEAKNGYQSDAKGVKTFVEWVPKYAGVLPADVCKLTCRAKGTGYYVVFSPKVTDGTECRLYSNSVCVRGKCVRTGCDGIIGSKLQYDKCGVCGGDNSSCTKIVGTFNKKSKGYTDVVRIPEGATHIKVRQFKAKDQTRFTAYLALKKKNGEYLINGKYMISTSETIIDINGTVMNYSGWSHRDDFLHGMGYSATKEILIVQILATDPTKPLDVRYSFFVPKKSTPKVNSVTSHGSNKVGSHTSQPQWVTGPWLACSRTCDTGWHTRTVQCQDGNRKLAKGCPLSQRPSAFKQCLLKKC
Method: ADAMTS-5 is a metallo protease with glutamyl-endoprotease activity and cleaves aggrecan core protein at E373-A374 in the interglobular domain. To fully analyse the inhibitory potential of compounds on AdamTS-5 activity an Alphascreen® assay with a biotinylated 43mer aggrecan oligopeptide as substrate was performed. Cleavage by ADAMTS-5 caused production of a neoepitop N-terminus ARGS at the C-terminal fragment. The detection of this product is performed with streptavidin-AlphaScreen® donor beads binding to the biotin label and an anti-neoepitop (“ARGSV”) antibody that anchors anti-mouse IgG-coated AlphaLisa® acceptor beads to the other end of the generated fragment. Thereby, donor and acceptor beads get in proximity and a luminescence Alphascreen® signal is generated via the release of singlet oxygen. The cleavage activity was detectable directly by the increase in Alphascreen® signal.
The aggrecan peptide cleavage assay was performed as 384 well AlphaScreen® (Perkin Elmer) assay format in Perkin Elmer 384 AlphaPlate (proxiplate) shallow well microtiter plates and was used for high throughput screen in a total assay volume of 10 μl. 4.5 nM human recombinant AdamTS-5 (R&D systems, Wiesbaden, Germany) and 30 nM biotinylated peptide […]-K(bio) (custom-made, Biosynthan, Berlin, Germany) as substrate were incubated in a total volume of 6 μl (100 mM Tris/HCl, 150 mM NaCl, 10 mM CaCl2, 0.05% Brij®-35, 1% DMSO, 0.084% BSA, pH 7.5) in the absence or presence of the test compound (10 dilution concentrations) for 180 min at 37° C. The reaction was stopped and the first detection step performed by the addition of 2 μl detection solution 1 (48 mM EDTA, 8 nM aggrecan antibody N-term neoepitope ARG, mouse monoclonal BC3 antibody (MDBioproducts, Egg, Switzerland), 100 μg/ml Streptavidin Alphascreen® donor beads (Perkin Elmer, Rodgau, Germany) in 100 mM Tris/HCl, 150 mM NaCl, 0.05% Brij®-35, 0.1% BSA, pH 7.5). After an one-hour incubation at 37° C. 2 μl of the second detection solution (25 μg/ml anti-mouse AlphaLisa® acceptor beads (Perkin Elmer, Rodgau, Germany) in 100 mM Tris/HCl, 150 mM NaCl, 0.05% Brij®-35, 0.1% BSA, pH 7.5 were added. The plates were incubated for […] in the dark.
The AlphaScreen signal was measured with an Envision multimode reader (Perkin Elmer LAS Germany GmbH) with the Alphascreen protocol from Perkin Elmer (laser mode) emission wavelength 570 nm. The full value used was the inhibitor-free reaction. For the zero value a pharmacological reference was used. The inhibitory values (IC50) for the compounds were determined using either the program Symyx Assay Explorer® or Condosseo® from GeneData.

Solubility pH7.4 = type: physicochemical; conditions: pH 7.4, aqueous buffer

Row | IC50 [1] | solubility (Solubility pH7.4) | Compound
1 | 13 nM | 850 µg/mL | COc1cc(CNC(=O)[C@H](CC(C)C(=O)O)NC(=O)c2ccc(-c3ccccc3)cc2)cc(OC)c1OC (mixture of isomers) [Compound 1, 4-[(Biphenyl-4-carbonyl)-amino]-2-methyl-4-(3,4,5-trimethoxy-benzylcarbamoyl)-butyric acid]
2 | 62 nM | 159 µg/mL (≈ 334 µM) | C[C@@H](Cc1ccc(F)cc1)NC(=O)[C@H](C[C@H](C)C(=O)O)NC(=O)c1ccc(-c2ccccc2)cc1 (single isomer, unassigned) [Compound 3]
3 | 530 nM | 303 µg/mL (≈ 636 µM) | CC(Cc1ccc(F)cc1)NC(=O)[C@H](C[C@H](C)C(=O)O)NC(=O)c1ccc(-c2ccccc2)cc1 (single isomer, unassigned) [Compound 17]
4 | 47 nM | 912 µg/mL (≈ 1770 µM) | C[C@@H](C[C@H](NC(=O)c1ncc(-c2ccc(F)cc2)s1)C(=O)NC(C)(C)Cc1ccc(F)cc1)C(=O)O [Compound 2, (2S,4S)-4-[2-(4-Fluoro-phenyl)-1,1-dimethyl-ethylcarbamoyl]-4-{[5-(4-fluoro-phenyl)-thiazole-2-carbonyl]-amino}-2-methyl-butyric acid]
5 | 66 nM |  | C[C@@H](C[C@H](NC(=O)c1ccc(-c2ccccc2)cc1)C(=O)NC(C)(C)Cc1cccnc1)C(=O)O [Compound 4, (2S,4S)-4-[(Biphenyl-4-carbonyl)-amino]-4-(1,1-dimethyl-2-pyridin-3-yl-ethylcarbamoyl)-2-methyl-butyric acid]
6 | 150 nM | 60 µg/mL (≈ 106 µM) | CC(C)(Cc1ccc(F)cc1)NC(=O)[C@H](C[C@H](Cc1ccccc1)C(=O)O)NC(=O)c1ccc(-c2ccccc2)cc1 [Compound 6, (2S,4S)-2-Benzyl-4-[(biphenyl-4-carbonyl)-amino]-4-[2-(4-fluoro-phenyl)-1,1-dimethyl-ethylcarbamoyl]-butyric acid]
7 | 180 nM | 798 µg/mL (≈ 1610 µM) | C[C@@H](C[C@H](NC(=O)c1ccc(-c2ccn(C)n2)cc1)C(=O)NC(C)(C)Cc1ccc(F)cc1)C(=O)O [Compound 9, (2S,4S)-4-[2-(4-Fluoro-phenyl)-1,1-dimethyl-ethylcarbamoyl]-2-methyl-4-[4-(1-methyl-1H-pyrazol-3-yl)-benzoylamino]-butyric acid]
8 | 190 nM | 883 µg/mL (≈ 1800 µM) | C[C@@H](C[C@H](NC(=O)c1ccc(-c2ccccn2)cc1)C(=O)NC(C)(C)Cc1ccc(F)cc1)C(=O)O [Compound 10, (2S,4S)-4-[2-(4-Fluoro-phenyl)-1,1-dimethyl-ethylcarbamoyl]-2-methyl-4-(4-pyridin-2-yl-benzoylamino)-butyric acid]
9 | 250 nM | 648 µg/mL (≈ 1270 µM) | C[C@@H](C[C@H](NC(=O)c1ccc(-c2ccccc2)cc1F)C(=O)NC(C)(C)Cc1ccc(F)cc1)C(=O)O [Compound 11, (2S,4S)-4-[(3-Fluoro-biphenyl-4-carbonyl)-amino]-4-[2-(4-fluoro-phenyl)-1,1-dimethyl-ethylcarbamoyl]-2-methyl-butyric acid]
10 | 320 nM | 743 µg/mL (≈ 1440 µM) | C[C@@H](C[C@H](NC(=O)C1CCN(c2ccc(F)cc2)CC1)C(=O)NC(C)(C)Cc1ccc(F)cc1)C(=O)O [Compound 12, (2S,4S)-4-[2-(4-Fluoro-phenyl)-1,1-dimethyl-ethylcarbamoyl]-4-{[1-(4-fluoro-phenyl)-piperidine-4-carbonyl]-amino}-2-methyl-butyric acid]
11 | 330 nM | 855 µg/mL (≈ 1740 µM) | C[C@@H](C[C@H](NC(=O)c1ccc(-c2ccccc2)cn1)C(=O)NC(C)(C)Cc1ccc(F)cc1)C(=O)O [Compound 13, 4-[2-(4-Fluoro-phenyl)-1,1-dimethyl-ethylcarbamoyl]-2-methyl-4-[(5-phenyl-pyridine-2-carbonyl)-amino]-butyric acid]
12 | 350 nM | 775 µg/mL (≈ 1580 µM) | C[C@@H](C[C@H](NC(=O)c1ccc(-c2ccccc2)nc1)C(=O)NC(C)(C)Cc1ccc(F)cc1)C(=O)O [Compound 14, (2S,4S)-4-[2-(4-Fluoro-phenyl)-1,1-dimethyl-ethylcarbamoyl]-2-methyl-4-[(6-phenyl-pyridine-3-carbonyl)-amino]-butyric acid]
13 | 360 nM | 924 µg/mL (≈ 1850 µM) | C[C@@H](C[C@H](NC(=O)N1CCN(c2ccccc2)CC1)C(=O)NC(C)(C)Cc1ccc(F)cc1)C(=O)O [Compound 15, (2S,4S)-4-[2-(4-Fluoro-phenyl)-1,1-dimethyl-ethylcarbamoyl]-2-methyl-4-[(4-phenyl-piperazine-1-carbonyl)-amino]-butyric acid]
14 | 390 nM | 365 µg/mL (≈ 743 µM) | C[C@@H](C[C@H](NC(=O)c1ccc(-c2cccnc2)cc1)C(=O)NC(C)(C)Cc1ccc(F)cc1)C(=O)O [Compound 16, (2S,4S)-4-[2-(4-Fluoro-phenyl)-1,1-dimethyl-ethylcarbamoyl]-2-methyl-4-(4-pyridin-3-yl-benzoylamino)-butyric acid]
15 | 1200 nM | 805 µg/mL (≈ 1620 µM) | C[C@@H](C[C@H](NC(=O)N1CCC(c2ccccc2)CC1)C(=O)NC(C)(C)Cc1ccc(F)cc1)C(=O)O [Compound 18, (2S,4S)-4-[2-(4-Fluoro-phenyl)-1,1-dimethyl-ethylcarbamoyl]-2-methyl-4-[(4-phenyl-piperidine-1-carbonyl)-amino]-butyric acid]
16 | 1200 nM | 637 µg/mL (≈ 1250 µM) | Cc1cnc(-c2ccc(C(=O)N[C@@H](C[C@H](C)C(=O)O)C(=O)NC(C)(C)Cc3ccc(F)cc3)cc2)s1 [Compound 19, (2S,4S)-4-[2-(4-Fluoro-phenyl)-1,1-dimethyl-ethylcarbamoyl]-2-methyl-4-[4-(5-methyl-thiazol-2-yl)-benzoylamino]-butyric acid]
17 | 1400 nM | 493 µg/mL (≈ 956 µM) | C[C@@H](C[C@H](NC(=O)c1cnc(-c2ccc(F)cc2)s1)C(=O)NC(C)(C)Cc1ccc(F)cc1)C(=O)O [Compound 20, (2S,4S)-4-[2-(4-Fluoro-phenyl)-1,1-dimethyl-ethylcarbamoyl]-4-{[2-(4-fluoro-phenyl)-thiazole-5-carbonyl]-amino}-2-methyl-butyric acid]
